Laboratory results from patent US7579356B2, “Thia-tetraazaacenaphthylene kinase inhibitors” (Janssen Pharmaceutica NV, priority 2005, dated 2009).

What was measured:
EGFR = target: T1, EGFR (Homo sapiens, UniProt P00533); experiment: EGFR Kinase Assay; format: biochemical; settings: for inhibition at 2 µM: test concentration of 2 μM, compounds without an IC50, read-out: EGFR inhibition in percent; for IC50: GST-EGFR, ATP 5 μM
T1 construct: The intracellular portion of EGFR started at nucleotide 2189 (corresponding to amino acid 667) and ended at the termination codon; made in house; host or cells: Sf9 insect cells (baculovirus)
T1 sequence (P00533 669-1210 limits assumed): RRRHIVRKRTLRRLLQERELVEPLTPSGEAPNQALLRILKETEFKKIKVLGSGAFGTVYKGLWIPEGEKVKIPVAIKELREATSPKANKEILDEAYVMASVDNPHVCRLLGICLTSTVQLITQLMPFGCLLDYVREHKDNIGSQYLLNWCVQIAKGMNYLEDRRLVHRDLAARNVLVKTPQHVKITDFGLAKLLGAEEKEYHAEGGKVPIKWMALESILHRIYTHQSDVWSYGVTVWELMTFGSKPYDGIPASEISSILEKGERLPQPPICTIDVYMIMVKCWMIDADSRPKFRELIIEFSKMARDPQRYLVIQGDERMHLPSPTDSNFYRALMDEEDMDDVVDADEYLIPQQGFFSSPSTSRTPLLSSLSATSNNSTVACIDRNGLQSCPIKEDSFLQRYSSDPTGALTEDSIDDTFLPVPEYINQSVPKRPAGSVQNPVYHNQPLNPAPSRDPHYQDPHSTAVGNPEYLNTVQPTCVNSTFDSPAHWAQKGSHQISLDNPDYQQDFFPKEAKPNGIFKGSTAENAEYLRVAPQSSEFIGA
How it was run: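 Potency came from triplicate 16-point half-log titrations starting at 200 uM, with IC50 fitted from % inhibition against log concentration, or % inhibition at 2 μM otherwise. Reaction: Sf9-made GST–EGFR cytoplasmic region (aa 667 onward), biotin-polyGluTyr, 5 μM ATP with 33P tracer, pH 8.0 Tris/Mg/vanadate/DTT, 30 °C for 1 h; captured on streptavidin Flashplates and counted.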

HCT-116 colon carcinoma = experiment: Cell Proliferation Inhibition Assay, HCT-116 (14C-thymidine); format: cell-based; settings: Homo sapiens, HCT-116 cell proliferation
Source text: Cell Proliferation Inhibition Assay
The ability of a test compound to inhibit unregulated cell proliferation may be determined by measuring incorporation of ^14C-labelled thymidine into newly synthesized DNA within cell lines derived from carcinomas originating from several tissues. Accordingly, the effect of a test compound on proliferation of cells with a variety of phenotypes may be determined.
Carcinoma cell lines used include the HeLa cervical adenocarcinoma from the American Type Culture Collection (ATCC Cat. #CCL2), A375 malignant melanoma (ATCC Cat. #CRL-1619), HCT-116 colon carcinoma (ATCC Cat. #CCL-247), SKBR3 breast carcinoma (ATCC Cat. #HTB-30) and BT474 breast carcinoma (ATCC Cat. #HTB-20).
The carcinoma cells were trypsinized and counted. The cells (3000-8000 count) were added to each well of a 96-well CytoStar tissue culture treated scintillating microplate (Amersham #RPNQ0160) in complete medium (100 μL) and the plate was then incubated in complete medium for 24 hrs at 37° C. in an inert atmosphere containing 5% CO2.
Test compound (1 μL) in 100% DMSO was added to the plate test-wells with DMSO only added to control-wells. The plate was incubated in complete medium for a second 24 hr period at 37° C. in an atmosphere containing 5% CO2.
An aliquot of a solution of Methyl ^14C-thymidine (56 mC/mmol) (NEN #NEC568 or AMersham #CFA532) and complete medium (20 uL to provide 0.2 μCl/well) was then added to each well and the plate was incubated for a third 24 hr period at 37° C. in an atmosphere containing 5% CO2.
The plate contents were then discarded, the plate washed twice with PBS (200 μL) and then PBS (200 μL) was added to each well. The plate was sealed and the degree of methyl ^14C-thymidine incorporation was quantified on a Packard Top Count.
Cell proliferation of the Hela cell line was measured using the ATP-Lite method as described in the ATP Lite Kit (Perkin-Elmer Kit Number 6106941) or the C^14 method as described above. Cell proliferation of the other cell lines was measured using the C^14 method.

Compound | inhibition at 2 µM (EGFR) | IC50 (EGFR) | IC50 (HCT-116 colon carcinoma)
COc1cc(N2C(=O)Nc3c(C(=O)Nc4ccc(CN5CCCC5)cc4)sc4ncnc2c34)c(Cl)cc1Cl [Cpd 43, 5-(2,4-dichloro-5-methoxy-phenyl)-4-oxo-4,5-dihydro-3H-1-thia-3,5,6,8-tetraaza-acenaphthylene-2-carboxylic acid (4-pyrrolidin-1-ylmethyl-phenyl)-amide] | 47% |  | 
COc1ccc(Cl)c(N2C(=O)Nc3c(C(=O)Nc4ccc(OC)c(OC)c4)sc4ncnc2c34)c1 [Cpd 49, 5-(2-chloro-5-methoxy-phenyl)-4-oxo-4,5-dihydro-3H-1-thia-3,5,6,8-tetraaza-acenaphthylene-2-carboxylic acid (3,4-dimethoxy-phenyl)-amide] | 25% |  | 
COc1ccc(Cl)c(N2C(=O)Nc3c(C(=O)Nc4ccc(OCCN5CCOCC5)c(OC)c4)sc4ncnc2c34)c1 [Cpd 50, 5-(2-chloro-5-methoxy-phenyl)-4-oxo-4,5-dihydro-3H-1-thia-3,5,6,8-tetraaza-acenaphthylene-2-carboxylic acid [3-methoxy-4-(2-morpholin-4-yl-ethoxy)-phenyl]-amide] | 30% |  | 
COc1ccc(Cl)c(N2C(=O)Nc3c(C(=O)Nc4ccc(CN5CCOCC5)cc4)sc4ncnc2c34)c1 [Cpd 51, 5-(2-chloro-5-methoxy-phenyl)-4-oxo-4,5-dihydro-3H-1-thia-3,5,6,8-tetraaza-acenaphthylene-2-carboxylic acid (4-morpholin-4-ylmethyl-phenyl)-amide] | 53% |  | 
COC(=O)c1sc2ncnc3c2c1NC(=O)N3c1c(Cl)ccc2c1OCO2 [Cpd 54, 5-(5-chloro-benzo[1,3]dioxol-4-yl)-4-oxo-4,5-dihydro-3H-1-thia-3,5,6,8-tetraaza-acenaphthylene-2-carboxylic acid methyl ester] | 25% |  | 
COc1cc(N2C(=O)Nc3c(C(=O)Nc4ccc(CN5CCN(C)CC5)cc4)sc4ncnc2c34)c(Cl)cc1Cl [Cpd 60] | 29% |  | 
O=C(Nc1ccc(CN2CCOCC2)cc1)c1sc2ncnc3c2c1NC(=O)N3c1c(Cl)ccc2c1OCO2 [Cpd 62, 5-(5-chloro-benzo[1,3]dioxol-4-yl)-4-oxo-4,5-dihydro-3H-1-thia-3,5,6,8-tetraaza-acenaphthylene-2-carboxylic acid (4-morpholin-4-ylmethyl-phenyl)-amide] |  | 356 nM | 
O=C(O)c1sc2ncnc3c2c1NC(=O)N3c1ccc2c(ccn2Cc2cccc(F)c2)c1 [Cpd 77, 5-[1-(3-fluoro-benzyl)-1H-indol-5-yl]-4-oxo-4,5-dihydro-3H-1-thia-3,5,6,8-tetraaza-acenaphthylene-2-carboxylic acid] |  | 164 nM | 100000 nM
CCOC(=O)c1sc2ncnc3c2c1NC(=O)N3c1ccc2c(cnn2Cc2cccc(F)c2)c1 [Cpd 78, 5-[1-(3-fluoro-benzyl)-1H-indazol-5-yl]-4-oxo-4,5-dihydro-3H-1-thia-3,5,6,8-tetraaza-acenaphthylene-2-carboxylic acid ethyl ester] |  | 2220 nM | 100000 nM
O=C(O)c1sc2ncnc3c2c1NC(=O)N3c1ccc2c(cnn2Cc2cccc(F)c2)c1 [Cpd 79, 5-[1-(3-fluoro-benzyl)-1H-indazol-5-yl]-4-oxo-4,5-dihydro-3H-1-thia-3,5,6,8-tetraaza-acenaphthylene-2-carboxylic acid] |  | 302 nM | 100000 nM

Results, then the compound that gave them:

inhibition at 2 µM (EGFR) | IC50 (EGFR) | IC50 (HCT-116 colon carcinoma) | Compound
 | 36 nM | 14000 nM | O=C(Nc1ccc(CN2CCCCC2)cc1)c1sc2ncnc3c2c1NC(=O)N3c1ccc2c(cnn2Cc2cccc(F)c2)c1 [Cpd 80, 5-[1-(3-fluoro-benzyl)-1H-indazol-5-yl]-4-oxo-4,5-dihydro-3H-1-thia-3,5,6,8-tetraaza-acenaphthylene-2-carboxylic acid (4-piperidin-1-ylmethyl-phenyl)-amide]
 | 113 nM | 3690 nM | O=C(Nc1ccc(CN2CCCCC2)cc1)c1sc2ncnc3c2c1NC(=O)N3c1ccc2c(ccn2Cc2cccc(F)c2)c1 [Cpd 87, 5-[1-(3-fluoro-benzyl)-1H-indol-5-yl]-4-oxo-4,5-dihydro-3H-1-thia-3,5,6,8-tetraaza-acenaphthylene-2-carboxylic acid (4-piperidin-1-ylmethyl-phenyl)-amide]
 | 34 nM |  | O=C(Nc1ccc(CN2CCCCC2)cc1)c1sc2ncnc3c2c1NC(=O)N3c1ccc(OCc2ccccn2)c(Cl)c1 [Cpd 89, 5-[3-chloro-4-(pyridin-2-ylmethoxy)-phenyl]-4-oxo-4,5-dihydro-3H-1-thia-3,5,6,8-tetraaza-acenaphthylene-2-carboxylic acid (4-piperidin-1-ylmethyl-phenyl)-amide]
 | 112 nM |  | CN1CCN(Cc2ccc(NC(=O)c3sc4ncnc5c4c3NC(=O)N5c3ccc(OCc4ccccn4)c(Cl)c3)cc2)CC1 [Cpd 90, 5-[3-chloro-4-(pyridin-2-ylmethoxy)-phenyl]-4-oxo-4,5-dihydro-3H-1-thia-3,5,6,8-tetraaza-acenaphthylene-2-carboxylic acid [4-(4-methyl-piperazin-1-ylmethyl)-phenyl]-amide]
 | 168 nM | 10000 nM | CC(C)(C)OC(=O)N1CCC(NC(=O)c2sc3ncnc4c3c2NC(=O)N4c2ccc3c(ccn3Cc3cccc(F)c3)c2)CC1 [Cpd 91, 4-({5-[1-(3-fluoro-benzyl)-1H-indol-5-yl]-4-oxo-4,5-dihydro-3H-1-thia-3,5,6,8-tetraaza-acenaphthylene-2-carbonyl}-amino)-piperidine-1-carboxylic acid tert-butyl ester]
 | 45 nM | 4360 nM | CN1CCC(NC(=O)c2sc3ncnc4c3c2NC(=O)N4c2ccc3c(ccn3Cc3cccc(F)c3)c2)CC1 [Cpd 92, 5-[1-(3-fluoro-benzyl)-1H-indol-5-yl]-4-oxo-4,5-dihydro-3H-1-thia-3,5,6,8-tetraaza-acenaphthylene-2-carboxylic acid (1-methyl-piperidin-4-yl)-amide]
 | 10 nM |  | O=C(Nc1ccc(CN2CCCCC2)cc1)c1sc2ncnc3c2c1NC(=O)N3c1ccc(Oc2ccccc2)cc1 [Cpd 96, 4-oxo-5-(4-phenoxy-phenyl)-4,5-dihydro-3H-1-thia-3,5,6,8-tetraaza-acenaphthylene-2-carboxylic acid (4-piperidin-1-ylmethyl-phenyl)-amide]
 | 13 nM |  | O=C(Nc1ccc(CN2CCOCC2)cc1)c1sc2ncnc3c2c1NC(=O)N3c1ccc(Oc2ccccc2)cc1 [Cpd 97, 4-oxo-5-(4-phenoxy-phenyl)-4,5-dihydro-3H-1-thia-3,5,6,8-tetraaza-acenaphthylene-2-carboxylic acid (4-morpholin-4-ylmethyl-phenyl)-amide]
 | 22 nM |  | CN1CCN(Cc2ccc(NC(=O)c3sc4ncnc5c4c3NC(=O)N5c3ccc(Oc4ccccc4)cc3)cc2)CC1 [Cpd 98, 4-oxo-5-(4-phenoxy-phenyl)-4,5-dihydro-3H-1-thia-3,5,6,8-tetraaza-acenaphthylene-2-carboxylic acid [4-(4-methyl-piperazin-1-ylmethyl)-phenyl]-amide]
 | 15 nM |  | COc1cc(NC(=O)c2sc3ncnc4c3c2NC(=O)N4c2ccc(Oc3ccccc3)cc2)ccc1OCCN1CCCCC1 [Cpd 100, 4-oxo-5-(4-phenoxy-phenyl)-4,5-dihydro-3H-1-thia-3,5,6,8-tetraaza-acenaphthylene-2-carboxylic acid [3-methoxy-4-(2-piperidin-1-yl-ethoxy)-phenyl]-amide]
41% |  |  | O=C(Nc1ccc(CN2CCOCC2)cc1)c1sc2ncnc3c2c1NC(=O)N3c1c(Cl)cccc1Cl [Cpd 104, 5-(2,6-dichloro-phenyl)-4-oxo-4,5-dihydro-3H-1-thia-3,5,6,8-tetraaza-acenaphthylene-2-carboxylic acid (4-morpholin-4-ylmethyl-phenyl)-amide]
 | 21 nM |  | O=C(Nc1ccc(CN2CCOCC2)cc1)c1sc2ncnc3c2c1NC(=O)N3c1ccc(Oc2ccccc2)c(F)c1 [Cpd 113, 5-(3-fluoro-4-phenoxy-phenyl)-4-oxo-4,5-dihydro-3H-1-thia-3,5,6,8-tetraaza-acenaphthylene-2-carboxylic acid (4-morpholin-4-ylmethyl-phenyl)-amide]
11% |  |  | O=C(Nc1ccc(CN2CCOCC2)cc1)c1sc2ncnc3c2c1NC(=O)N3c1ccc(N2CCOCC2)cc1 [Cpd 123, 5-(4-morpholin-4-yl-phenyl)-4-oxo-4,5-dihydro-3H-1-thia-3,5,6,8-tetraaza-acenaphthylene-2-carboxylic acid (4-morpholin-4-ylmethyl-phenyl)-amide]
